In one test the target is T1, hNTS1 receptor (Homo sapiens, UniProt P30989).
T1 construct: membranes prepared from them
The test can be described thus: Competitive radioligand binding assay on the hNTS1 receptor. As to conditions: membranes of CHO-K1 cells expressing hNTS1. As to the method: (§1) CHO-K1 (Chinese Hamster Ovary) cells stably expressing hNTS1 and 1321N1 cells stably expressing hNTS2 (ES-690-C and ES-691-C from PerkinElmer, Montréal, Canada) were cultured respectively in Ham's F12 and in DMEM culture media. Culture media were supplemented with 10% FBS, 100 U/mL penicillin, 100 μg/mL streptomycin, 20 mM HEPES, and 0.4 mg/mL G418 at 37° C. in a humidified chamber at 5% CO2.
(§2) The cells expressing hNTS1 were frozen when they reached 80% confluency. They were scrapped off the dish with 10 mM Tris buffer, 1 mM EDTA, pH 7.5 and centrifuged at 15,000 g for 5 min at 4° C. The pellet was then re-suspended in 1 mL binding buffer. The cells expressing hNTS2 were also frozen when they reached 80% confluency. They were scraped off the dish with PBS, 0.5 mM EDTA, pH 7.5 and sonicated for 5 minutes (pulse 30 s/5 s off, amplitude 40%). They were ultracentrifuged at 100 000 g for 60 minutes at 4° C. The pellet was re-suspended in 1 mL freezing buffer (PBS, glycerol, 0.5 mM EDTA), sonicated for 1 minute (pulse 30 s/5 s off, amplitude 50%) and further diluted in binding buffer. Competitive radioligand binding experiments were performed by incubating 15 μg of cell membranes expressing the hNTS1 receptor with […] of ^125I-[Tyr^3]-NT (2200 Ci/mmol) or 50 μg of cell membranes expressing the hNTS2 receptor with […] of ^125I-[Tyr^3]-NT in binding buffer (50 mM Tris-HCl, pH 7.5, 0.2% BSA) in the presence of increasing concentrations of analogues ranging from 10^−11 to 10^−4 M for 60 min at 25° C. After incubation, the binding reaction mixture was transferred in PEI-coated 96-well filter plates (glass fiber filters GF/B, Millipore, Billerica, MA). Reaction was terminated by filtration, and plates were washed three times with 200 μL ice-cold binding buffer. Glass filters were then counted using a γ-counter (2470 Wizard2, PerkinElmer, Mississauga, Ontario, Canada). Non-specific binding was measured in the presence of 10^−5 M unlabeled NT (8-13) and represented less than 5% of total binding. IC50 values were determined from competition curves as the unlabeled ligand concentration inhibiting 50% of ^125I-[Tyr^3]-NT-specific binding.
(§3) Competitive radioligand binding data were plotted using the nonlinear regression One-site-Fit Log(IC50) and represented the mean±SEM of at least three independent experiments in triplicates.

In a further test the target is T2, hNTS2 receptor (Homo sapiens, UniProt O95665).
T2 construct: membranes prepared from them
The test can be described thus: Competitive radioligand binding assay on the hNTS2 receptor. As to conditions: for IC50: membranes of 1321N1 cells expressing hNTS2; for Selectivity: ratio IC50 for NTS1 : IC50 for NTS2. As for the experimental part: as §1, §2, §3

The mark [1] stands for this setting: displacement of 125I-[Tyr3]-NT, read-out: IC50 NTS1.
Where [2] appears, read: displacement of 125I-[Tyr3]-NT, read-out: IC50 NTS2 (converted).

The structures appear in SMILES notation. Like-named read-outs stand apart in the source and are kept apart here. *1 amine or outer side, *2 acyl side, *3 side chain or, on linkers, in order; H or OH if unused. Where a SMILES comes first, the peptide text is derived from it. Bridges are numbered along the chain shown (N, C = ends). [ ]: non-standard residue; d: D form. ξ: configuration not given here. ξαMeNle(6-ylidene) = CC(CCCC=[*:3])(N[*:1])C(=O)[*:2]; Phe(4-tBu) = CC(C)(C)c1ccc(C[C@H](N)C(=O)O)cc1; Bpa = N[C@@H](Cc1ccc(C(=O)c2ccccc2)cc1)C(=O)O; Bip = N[C@@H](Cc1ccc(-c2ccccc2)cc1)C(=O)O; Phe(3-Cl) = N[C@@H](Cc1cccc(Cl)c1)C(=O)O; Phe(4-Br) = N[C@@H](Cc1ccc(Br)cc1)C(=O)O; Ala(cPent) = N[C@@H](CC1CCCC1)C(=O)O; dTic = O=C(O)[C@H]1Cc2ccccc2CN1; Ile(3ξ) = CCC(C)[C@H](N)C(=O)O; AllylGly = C=CC[C@H](N)C(=O)O; Chg = N[C@H](C(=O)O)C1CCCCC1; Pen = CC(C)(S)[C@H](N)C(=O)O; hLys = NCCCCC[C@H](N)C(=O)O; Orn = NCCC[C@H](N)C(=O)O; Dab = NCC[C@H](N)C(=O)O A value given as a limit tells only on which side of the number the result lay.

T2 sequence (O95665 whole entry): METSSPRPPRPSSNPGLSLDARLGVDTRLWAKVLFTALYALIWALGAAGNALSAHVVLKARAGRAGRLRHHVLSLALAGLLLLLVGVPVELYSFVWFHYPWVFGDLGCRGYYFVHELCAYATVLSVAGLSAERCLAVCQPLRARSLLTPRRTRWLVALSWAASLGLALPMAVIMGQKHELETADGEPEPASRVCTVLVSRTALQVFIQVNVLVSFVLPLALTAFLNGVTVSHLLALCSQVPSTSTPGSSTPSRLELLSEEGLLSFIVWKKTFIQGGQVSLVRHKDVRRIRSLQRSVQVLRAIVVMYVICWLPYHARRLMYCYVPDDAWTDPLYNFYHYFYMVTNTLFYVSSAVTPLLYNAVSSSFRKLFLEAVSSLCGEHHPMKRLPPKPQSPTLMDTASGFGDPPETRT
T1 sequence (P30989 whole entry): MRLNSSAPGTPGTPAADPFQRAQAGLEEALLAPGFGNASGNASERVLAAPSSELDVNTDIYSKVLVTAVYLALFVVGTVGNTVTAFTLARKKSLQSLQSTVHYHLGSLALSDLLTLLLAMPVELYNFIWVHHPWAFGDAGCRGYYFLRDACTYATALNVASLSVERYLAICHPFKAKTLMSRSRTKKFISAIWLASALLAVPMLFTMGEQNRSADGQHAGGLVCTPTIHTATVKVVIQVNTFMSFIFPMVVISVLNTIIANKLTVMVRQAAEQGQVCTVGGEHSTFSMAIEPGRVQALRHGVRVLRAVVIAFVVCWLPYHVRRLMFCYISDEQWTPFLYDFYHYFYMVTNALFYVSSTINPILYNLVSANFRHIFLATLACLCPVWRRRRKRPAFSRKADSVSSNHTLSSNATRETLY

Usually IC50 stands for the concentration that gives 50% inhibition. Consider `COc1ccc(C[C@H](NC(=O)[C@@H]2CC=CC[C@H](N)C(=O)N[C@@H](CCCCN)C(=O)N[C@@H](CCCCN)C(=O)N2)C(=O)N[C@@H](CC(C)C)C(=O)O)cc1` [compound 75, c[G(All)KKG(All)]Y(OMe)L] (H-[AllylGly]KK[AllylGly]Y(Me)L-OH; staple 1-4), for which the figures for the IC50 on hNTS1 receptor (setting [1]) and at hNTS2 receptor (setting [2]) were greater than 100 µM and 0.0863 µM, respectively. The Selectivity at hNTS2 receptor is listed as greater than 1159.
Taken in the same sequence, the figures for `CC(C)C[C@H](NC(=O)[C@H](Cc1ccc(O)cc1)NC(=O)[C@H]1NC(=O)[C@H](CCCCN)NC(=O)[C@H](CCCCN)NC(=O)[C@@H](N)C(C)(C)SSC1(C)C)C(=O)O` [compound 155, c[(Pen)KK(Pen)]YL] (H-[Pen]KK[Pen]YL-OH; disulfide 1-4) were greater than 100 µM, 0.318 µM and 315.
Taken in the same sequence, the figures for `CC(C)C[C@H](NC(=O)[C@@H](CCCCN)NC(=O)[C@@H]1CC=CC[C@H](N)C(=O)N[C@@H](CCCCN)C(=O)N[C@@H](CCCCN)C(=O)N1)C(=O)O` [compound 48, c[G(All)KKG(All)]K*L] (H-[AllylGly]KK[AllylGly][dK]L-OH; staple 1-4) were greater than 100 µM, 10.1 µM and greater than 10.
The corresponding values for `CC(C)C[C@H](NC(=O)[C@H](Cc1ccc(O)cc1)NC(=O)[C@@H]1CC=CC[C@H](N)C(=O)N[C@@H](CCCCN)C(=O)N[C@@H](CCCCCN)C(=O)N1)C(=O)O` [compound 149, c[G(All)KhomolysineG(All)]YL] (H-[AllylGly]K[hLys][AllylGly]YL-OH; staple 1-4) are greater than 100 µM, 0.214 µM and 468.
Turning to `CC(C)C[C@H](NC(=O)[C@H](Cc1ccc(Br)cc1)NC(=O)C1(C)CCCC=CC[C@H](N)C(=O)N[C@@H](CCCCN)C(=O)N[C@@H](CCCCN)C(=O)N1)C(=O)O` (stereo partly drawn) [compound 130, c[G(All)KKG(alpha-Me-(4-pentenyl))]F(4-bromo)L] (H-[AllylGly]KK[ξαMeNle(6-ylidene)][Phe(4-Br)]L-OH; staple 1-4), the IC50 was greater than 100 µM at hNTS1 receptor (setting [1]) and 0.0102 µM at hNTS2 receptor (setting [2]). For the same compound, the Selectivity on hNTS2 receptor stood at 9843.
For `CC(C)C[C@H](NC(=O)[C@H]1Cc2ccccc2CN1C(=O)[C@@H]1CC=CC[C@H](N)C(=O)N[C@@H](CCCCN)C(=O)N[C@@H](CCCCN)C(=O)N1)C(=O)O` [compound 163, c[G(All)KKG(All)]G(Tic)L] (H-[AllylGly]KK[AllylGly][dTic]L-OH; staple 1-4), the values for the IC50 at hNTS1 receptor (setting [1]) and on hNTS2 receptor (setting [2]) were greater than 100 µM and 10 µM, respectively. In addition, the Selectivity on hNTS2 receptor is recorded as 10.
In the case of `CC(C)C[C@H](NC(=O)[C@H](Cc1ccc(C(C)(C)C)cc1)NC(=O)[C@@H]1CC=CC[C@H](N)C(=O)N[C@@H](CCCCN)C(=O)N[C@@H](CCCCN)C(=O)N1)C(=O)O` [compound 110, c[G(All)KKG(All)]F(4-tbu)L] (H-[AllylGly]KK[AllylGly][Phe(4-tBu)]L-OH; staple 1-4), the IC50 at hNTS1 receptor (setting [1]) was greater than 100 µM; at hNTS2 receptor (setting [2]) it was 0.0402 µM. Further, the Selectivity at hNTS2 receptor is on record as greater than 2488.
Turning to `CC(C)C[C@H](NC(=O)[C@H](Cc1ccc(C(=O)c2ccccc2)cc1)NC(=O)[C@@H]1CC=CC[C@H](N)C(=O)N[C@@H](CCCCN)C(=O)N[C@@H](CCCCN)C(=O)N1)C(=O)O` [compound 160, c[G(All)KKG(All)]F (benzoyl)L] (H-[AllylGly]KK[AllylGly][Bpa]L-OH; staple 1-4), the IC50 on hNTS1 receptor (IC50 NTS1, displacement of 125I-[Tyr3]-NT) is greater than 100 µM; at hNTS2 receptor (IC50 NTS2, displacement of 125I-[Tyr3]-NT), 0.115 µM. In addition, the Selectivity at hNTS2 receptor is reported as 2.
With `CC(C)C[C@H](NC(=O)[C@H](CC1CCCC1)NC(=O)[C@@H]1CC=CC[C@H](N)C(=O)N[C@@H](CCCCN)C(=O)N[C@@H](CCCCN)C(=O)N1)C(=O)O` [compound 142, c[G(All)KKG(All)]A (cyclopentyl)L] (H-[AllylGly]KK[AllylGly][Ala(cPent)]L-OH; staple 1-4), the results for the 50% inhibitory concentration (IC50) on hNTS1 receptor (setting [1]) and at hNTS2 receptor (setting [2]) were greater than 100 µM and 0.204 µM, respectively. For the same compound, at hNTS2 receptor, the Selectivity amounted to 490.
In the case of `CC1(C(=O)N[C@@H](Cc2ccc(Br)cc2)C(=O)N[C@@H](CC2CCCC2)C(=O)O)CCCC=CCCC(=O)N[C@@H](CCCCN)C(=O)N[C@@H](CCCCN)C(=O)N1` (stereo partly drawn) [compound 137, c[K(Pentenoyl)KG(alpha-Me-(4-pentenyl))]F(4-bromo)A (cyclopentyl)], the values for the IC50 on hNTS1 receptor (setting [1]) and at hNTS2 receptor (setting [2]) were greater than 100 µM and 0.0096 µM, respectively. For the same compound, the Selectivity at hNTS2 receptor is listed as 10428.
Taken in the same sequence, the figures for `CC(C)C[C@H](NC(=O)[C@H](Cc1ccc(O)cc1)NC(=O)[C@@H]1CC(=O)NCCC[C@H](N)C(=O)N[C@@H](CCCCN)C(=O)N[C@@H](CCCCN)C(=O)N1)C(=O)O` [compound 96, c[OrnKKD]YL] (H-[Orn]KKDYL-OH; lactam 1-4) were greater than 100 µM, 1.93 µM and greater than 51.8.
The corresponding values for `CC(C)C[C@H](NC(=O)[C@H](Cc1ccc(O)cc1)NC(=O)[C@@H]1CCNC(=O)C[C@H](N)C(=O)N[C@@H](CCCCN)C(=O)N[C@@H](CCCCN)C(=O)N1)C(=O)O` [compound 105, c[DKKDab]YL] (H-DKK[Dab]YL-OH; lactam 1-4) are greater than 100 µM, 1.45 µM and greater than 67.0.
Taken in the same sequence, the figures for `CC(C)C[C@H](NC(=O)[C@H](Cc1ccc(-c2ccccc2)cc1)NC(=O)[C@@H]1CC=CC[C@H](N)C(=O)N[C@@H](CCCCN)C(=O)N[C@@H](CCCCN)C(=O)N1)C(=O)O` [compound 139, c[G(All)KKG(All)]A (biphenyl)L] (H-[AllylGly]KK[AllylGly][Bip]L-OH; staple 1-4) were greater than 100 µM, 0.0485 µM and 2061.
Consider `NCCCC[C@@H]1NC(=O)[C@H](CCCCN)NC(=O)[C@@H](N)CC=CC[C@@H](C(=O)N[C@@H](Cc2ccc(O)cc2)C(=O)N[C@H](C(=O)O)C2CCCCC2)NC1=O` [compound 30, c[G(All)KKG(All)]YChG] (H-[AllylGly]KK[AllylGly]Y[Chg]-OH; staple 1-4), for which the IC50 on hNTS1 receptor (setting [1]) is greater than 100 µM; on hNTS2 receptor (setting [2]) it was 0.955 µM. The Selectivity on hNTS2 receptor is greater than 104.
Turning to `CC(C)C[C@H](NC(=O)[C@H](Cc1cccc(Cl)c1)NC(=O)[C@@H]1CC=CC[C@H](N)C(=O)N[C@@H](CCCCN)C(=O)N[C@@H](CCCCN)C(=O)N1)C(=O)O` [compound 113, c[G(All)KKG(All)]F(3-chloro)L] (H-[AllylGly]KK[AllylGly][Phe(3-Cl)]L-OH; staple 1-4), the figures for the IC50 on hNTS1 receptor (setting [1]) and on hNTS2 receptor (setting [2]) were greater than 100 µM and 0.048 µM, respectively. Besides, the Selectivity on hNTS2 receptor is listed as greater than 2084.
Taken in the same sequence, the figures for `CCC(C)[C@H](NC(=O)[C@H](Cc1ccc(O)cc1)NC(=O)[C@@H]1CC=CC[C@H](N)C(=O)N[C@@H](CCCCN)C(=O)N[C@@H](CCCCN)C(=O)N1)C(=O)O` (some centres unmarked) [compound 14, c[G(All)KKG(All)]YI] (H-[AllylGly]KK[AllylGly]Y[Ile(3ξ)]-OH; staple 1-4) were 100 µM, 10.2 µM and 10.
Turning to `CC(C)C[C@H](NC(=O)[C@@H](Cc1ccc(O)cc1)NC(=O)[C@@H]1CC=CC[C@H](N)C(=O)N[C@@H](CCCCN)C(=O)N[C@@H](CCCCN)C(=O)N1)C(=O)O` [compound 21, c[G(All)KKG(All)]Y*L] (H-[AllylGly]KK[AllylGly][dY]L-OH; staple 1-4), the IC50 at hNTS1 receptor (setting [1]) is greater than 100 µM; at hNTS2 receptor (setting [2]), 4.7 µM.

(Values after US12358948B2, “Neurotensinergic agonists and methods of using same preventing or treating pain” (priority 2019, dated 2025).)
